These are literature values, as cited in patent US20260258086A1 (priority 2021, published 2026).

The conditions of this data set: in vivo; cited from earlier work.

Each structure is given as a SMILES string.

For `CC[C@H](C)[C@@H]1NC(=O)CNC(=O)[C@@H]2Cc3c([nH]c4cc(O)ccc34)[S@+]([O-])CC(NC(=O)CNC1=O)C(=O)N[C@@H](CC(N)=O)C(=O)N1C[C@H](O)C[C@H]1C(=O)N[C@@H]([C@@H](C)[C@@H](O)CO)C(=O)N2` [α-amanitin], the toxicity was 0.05 to 0.1 mg/kg.
